Patent publication US20230272010A1, “ANTIBACTERIAL SYNTHETIC-BIOINFORMATIC NATURAL PRODUCTS AND USES THEREOF” (The Rockefeller University, priority 2020, published 2023)
≈ marks a conversion by molar mass, not a printed value. Residues, ends and D or L forms follow the SMILES beside them.

What was measured:
A. baumannii = experiment: MIC determination by broth microdilution; type: cell-based, Acinetobacter baumannii
P. aeruginosa = experiment: MIC determination by broth microdilution; type: cell-based, Pseudomonas aeruginosa
E. coli DH5α = experiment: MIC determination by broth microdilution; type: cell-based, Escherichia coli
HeLa cells = experiment: in vitro; type: cell-based, human
Method: (§1) HeLa cells were grown in Dulbecco's Modified Eagle Medium (DMEM) supplemented with penicillin (10 units/mL), streptomycin (10 units/mL), […] (2 mM), and heat-inactivated fetal bovine serum (10% v/v) at 37° C. in a 5% CO2 atmosphere. HeLa cells were seeded into 384-well plates (500 cells per well) and incubated in DMEM at 37° C. with 5% CO2 for 16 h to allow cells to adhere. The OD570 readings were used to calculate relative growth (%) based on the positive (2 μM Taxol™, 0%) and negative (DMSO, 100%) controls. The cytotoxicity assay was performed in quadruplicate (n=4) and analyzed according to protocol reported previously (Chu Jet al., 2019, J. Am. Chem. Soc., 141:15737-15741).

M. tuberculosis H37Rv = settings: highest concentration tested 12.5 μg/mL
S. aureus or B. subtilis = experiment: Membrane lysis assay (SYTOX fluorescence); type: cell-based; settings: initial assays, FIG. 4C and 4D
[1] = test system: Bacillus subtilis, Escherichia coli, and the ESKAPE pathogens; experiment: Antibacterial activity / MIC against screening panel of bacteria; type: cell-based; settings: panel of Gram-positive and Gram-negative bacteria, FIG. 4A
Description: To identify antibacterial active syn-BNPs, each fraction, containing the mass of a target syn-BNP cyclic peptide against Bacillus subtilis, Escherichia coli, and the ESKAPE pathogens, was screened. ESKAPE pathogens represented the bacteria most commonly associated with antibiotic-resistant nosocomial infections: Enterococcus faecium, Staphylococcus aureus, Klebsiella pneumoniae, Acinetobacter baumannii, Pseudomonas aeruginosa, and Enterobacter cloacae (Boucher H W et al., 2009, Clin. Infect. Dis., 48:1-12).
In the initial screen, semi-pure peptides were spotted on solid growth media seeded with each bacterium. […]
Standard susceptibility assays were performed in the appropriate growth medium in 96-well microtiter plates to determine the MIC by the broth microdilution method in accordance to protocols recommended by Clinical and Laboratory Standards Institute (Weinstein MP, 2012, Methods for dilution antimicrobial susceptibility tests for bacteria that grow aerobically, 9th edition; Clinical and Laboratory Standards Institute, Wayne, Pa.). For polymyxin-supplemented assays, the MIC of polymyxin against a bacterium was first determined (lx MIC). […] The measured MICs were as follows: E. coli DH5α (0.0625 μg/mL), K. pneumoniae and P. aeruginosa (0.15 μg/mL), A. baumannii ([…]), and E. cloacae (2 μg/mL). […]

in vitro = type: cell-based, human; settings: human
Method: as §1

[2] = test system: S. aureus farER deletion mutant
S. aureus SH1000 ΔclpP = settings: clpP deletion
[3] = test system: S. aureus farER deletion mutant with constitutive overexpression of the farER effux system (pALCfarER)

## polymyxin
A. baumannii
  MIC of polymyxin: 0.3 μ/mL
P. aeruginosa
  MIC of polymyxin: 0.15 µg/mL
K. pneumoniae
  MIC of polymyxin: 0.15 µg/mL
E. coli DH5α
  MIC of polymyxin: 0.0625 µg/mL

## CCCCCCCCCCCC1CC(=O)N[C@H](Cc2ccccc2)C(=O)N[C@H](CCCN)C(=O)N[C@@H](C(C)C)C(=O)N[C@@H]([C@@H](C)CC)C(=O)N[C@@H](Cc2ccccc2)C(=O)N[C@@H](C)C(=O)N[C@@H](Cc2ccccc2)C(=O)N1 (stereo partly shown) [SyCPA 144, mucilasyn] (HELM PEPTIDE1{A.F.[CCCCCCCCCCCC(CC(=O)[*:2])N[*:1]].[dF].[NCCC[C@@H](N[*:1])C(=O)[*:2]].V.I.F}$PEPTIDE1,PEPTIDE1,1:R1-8:R2$$$V2.0)
HeLa cells
  Cytotoxicity (in words): lack of toxicity to human cells in vitro

## CCCCCCCCCCCCCC(=O)N[C@H]1CCCNC(=O)[C@H](CC(C)C)NC(=O)[C@H](CCCNC(=N)N)NC(=O)[C@H]([C@@H](C)CC)NC(=O)[C@@H](CCCNC(=N)N)NC1=O [SyCPA 63, thurinsyn] (HELM PEPTIDE1{[CCCCCCCCCCCCCC(=O)[*:2]].[Orn].[dR].I.R.L}$PEPTIDE1,PEPTIDE1,2:R3-6:R2$$$V2.0)
M. tuberculosis H37Rv
  MIC: 6 µg/mL (≈ 6.95 µM)
HeLa cells
  Cytotoxicity (in words): minimal HeLa cell cytotoxicity
K. pneumoniae
  MIC: 8 µg/mL (≈ 9.27 µM)

## CCCCCCCCCCCCCC(=O)N[C@@H]1CNC(=O)[C@@H]2CCCN2C(=O)[C@H](Cc2ccccc2)NC(=O)[C@@H](C(C)C)NC(=O)[C@H](C)NC(=O)[C@@H](CCC(N)=O)NC(=O)[C@H]2CCCN2C1=O [SyCPA 2] (HELM PEPTIDE1{[CCCCCCCCCCCCCC(=O)[*:2]].[O=C([C@@H](CN[*:3])N[*:1])[*:2]].[dP].[dQ].A.[dV].F.P}$PEPTIDE1,PEPTIDE1,2:R3-8:R2$$$V2.0)
S. aureus or B. subtilis
  SYTOX or DiSC3(5) fluorescence: slight increase in either SYTOX or DiSC3(5) fluorescence
[1]
  Spectrum of activity: broader Gram-positive activity
In vitro
  IC50: 16 µg/mL (≈ 17.1 µM)

## CCCCCCCCCCCC1CC(=O)N[C@H](CC(C)C)C(=O)N[C@H](CN)C(=O)N[C@@H](C(C)C)C(=O)N[C@@H](CO)C(=O)N[C@@H]([C@@H](C)CC)C(=O)N1 (stereo partly drawn) [SyCPA 116, collimosyn] (HELM PEPTIDE1{I.[CCCCCCCCCCCC(CC(=O)[*:2])N[*:1]].[dL].[NC[C@@H](N[*:1])C(=O)[*:2]].V.S}$PEPTIDE1,PEPTIDE1,1:R1-6:R2$$$V2.0)
[2]
  MIC: 8 µg/mL (≈ 11 µM)
S. aureus SH1000 ΔclpP
  Resistance (MIC): > 128 µg/mL
HeLa cells
  Cytotoxicity (in words): showed human cell line toxicity
In vitro
  IC50: 11 µg/mL (≈ 15.2 µM)
[3]
  MIC: > 64 µg/mL
